This is an account of results in US8946439B2, “Amide compounds, compositions and uses thereof” (Evotec AG, priority 2008, dated 2015).

The structures appear in SMILES notation.

One experiment addresses T1, hP2X2/3H (Homo sapiens, UniProt P56373+Q9UBL9).
T1 construct: expressed in transfected cells; host or cells: e.g. HEK293 or 1321N1
T1 sequence (Q9UBL9 1-471): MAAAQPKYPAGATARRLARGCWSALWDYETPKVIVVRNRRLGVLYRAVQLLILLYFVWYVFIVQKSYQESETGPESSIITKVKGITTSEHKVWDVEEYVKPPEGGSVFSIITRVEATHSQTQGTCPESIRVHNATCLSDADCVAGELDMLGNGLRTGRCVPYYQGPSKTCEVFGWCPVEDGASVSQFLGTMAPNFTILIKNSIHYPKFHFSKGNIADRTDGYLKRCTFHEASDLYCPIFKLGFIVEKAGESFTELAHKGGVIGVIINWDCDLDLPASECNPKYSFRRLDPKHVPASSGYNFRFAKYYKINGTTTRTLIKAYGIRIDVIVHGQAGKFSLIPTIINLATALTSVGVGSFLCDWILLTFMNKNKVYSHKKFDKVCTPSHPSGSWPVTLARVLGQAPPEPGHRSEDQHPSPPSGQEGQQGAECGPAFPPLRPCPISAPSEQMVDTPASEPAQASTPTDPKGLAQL
T1 sequence (P56373 1-397): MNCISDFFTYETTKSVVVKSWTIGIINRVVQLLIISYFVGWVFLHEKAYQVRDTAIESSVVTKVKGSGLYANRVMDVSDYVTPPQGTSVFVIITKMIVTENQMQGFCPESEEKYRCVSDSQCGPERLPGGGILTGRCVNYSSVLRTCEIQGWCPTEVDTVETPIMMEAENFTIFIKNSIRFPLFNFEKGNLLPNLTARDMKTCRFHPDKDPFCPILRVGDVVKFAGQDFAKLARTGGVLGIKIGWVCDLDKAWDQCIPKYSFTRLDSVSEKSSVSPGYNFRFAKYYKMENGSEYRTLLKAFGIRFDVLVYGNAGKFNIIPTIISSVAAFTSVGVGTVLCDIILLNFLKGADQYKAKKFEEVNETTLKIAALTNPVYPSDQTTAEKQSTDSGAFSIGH
Put plainly: Calcium uptake assay (P2X antagonist assay), P2X2/3 heteromer. To be noted: calcium uptake assay, hP2X2/3H; read-out: IC50 hP2X2/3H (nM), Ca Influx. The class given is cell-based. A digest of the protocol:
(§1)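 Stably or transiently transfected HEK293 or 1321N1 cells; the heteromer is made by adding P2X3 to a P2X2-stable line, with heteromer function isolated pharmacologically. The peak-minus-baseline FLIPR calcium signal gives % inhibition and a 4-parameter-logistic IC50.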

For a further experiment, the target named is T2, hP2X3 (Homo sapiens, UniProt P56373).
T2 construct: expressed in transfected cells; host or cells: e.g. HEK293 or 1321N1
T2 sequence (P56373 1-397): T1 sequence (P56373 1-397)
Put plainly: Calcium uptake assay (P2X antagonist assay), P2X3 homomer. Format: cell-based. Particulars: calcium uptake assay, hP2X3; read-out: IC50 hP2X3 (nM), Ca Influx. A digest of the protocol: as §1

As to `Cc1ccc(CNC(=O)c2cc(-c3ccc(C)c(C)c3)cc(S(C)(=O)=O)c2)cn1` [Compound 121], the IC50 at hP2X2/3H and at hP2X3 was over 1000 nM each time.
As for `Cc1ccc(-c2cc(C(=O)NCc3ccc(C)nc3)cc(C(=O)N3CCCC3)c2)nc1` [Compound 122, 3-(5-Methylpyridin-2-yl)-N-((6-methylpyridin-3-yl)methyl)-5-(pyrrolidine-1-carbonyl)benzamide], the IC50 at hP2X2/3H and at hP2X3 was under 100 nM throughout.
As for `Cc1ccc(-c2cc(C(=O)NCc3ccc(C(F)(F)F)nc3)cc(C(=O)N3CCCC3)c2)nc1` [Compound 123], the IC50 on hP2X2/3H and on hP2X3 was under 100 nM throughout.
As for `Cc1ccc(-c2cc(C(=O)NCc3ccc(C)nc3)cc(C(=O)N3CCNCC3)c2)cc1` [Compound 124], the IC50 was 100 to 500 nM at hP2X2/3H and under 100 nM at hP2X3.
On to `Cc1ccc(-c2cc(C(=O)NCc3ccc(C)nc3)cc(C(=O)N3CCN(C(C)C)CC3)c2)cc1` [Compound 125], for which the values for the IC50 on hP2X2/3H and on hP2X3 were 100 to 500 nM and under 100 nM, respectively.
The like results for `Cc1ccc(-c2cc(C(=O)NCc3ccc(C)nc3)cc(C(=O)N3CCNC(C)C3)c2)cc1` (stereo not shown) [Compound 126] were, in that order, 100 to 500 nM and under 100 nM.
For the molecule `Cc1ccc(-c2cc(C(=O)NCc3ccc(C)nc3)cc(C(=O)N3CCN(c4nccs4)CC3)c2)cc1` [Compound 127, 4′-Methyl-N-((6-methylpyridin-3-yl)methyl)-5-(4-(thiazol-2-yl)piperazine-1-carbonyl)biphenyl-3-carboxamide], the IC50 at hP2X2/3H was 100 to 500 nM; at hP2X3, under 100 nM.
In the case of `Cc1ccc(-c2cc(C(=O)NCc3ccc(C)nc3)cc(C(=O)N3CCN4CCCC4C3)c2)cc1` (stereo not shown) [Compound 128], the IC50 at hP2X2/3H and at hP2X3 was under 100 nM throughout.
As for `Cc1ccc(-c2cc(C(=O)NCc3ncc(C(F)(F)F)cc3Cl)cc(C(=O)N3CC(O)C3)c2)cc1` [Compound 129], the IC50 on hP2X2/3H and on hP2X3 was under 100 nM throughout.
`Cc1ccc(-c2cc(C(=O)NCc3ccc(C(F)(F)F)nc3)cc(C(=O)N3CC(O)C3)c2)cc1` [Compound 130, 5-(3-Hydroxyazetidine-1-carbonyl)-4′-methyl-N-((6-(trifluoromethyl)pyridin-3-yl)methyl)biphenyl-3-carboxamide]: the IC50 on hP2X2/3H and at hP2X3 was under 100 nM each time.
With `Cc1ccc(-c2cc(C(=O)NCc3ccc(Cl)nc3)cc(C(=O)N3CC(O)C3)c2)cc1` [Compound 131], the IC50 at hP2X2/3H and on hP2X3 was under 100 nM throughout.
For `Cc1ccc(-c2cc(C(=O)NCc3ccc(C)nc3)cc(C(=O)N3CC(O)C3)c2)cc1` [Compound 132], the IC50 at hP2X2/3H and at hP2X3 was under 100 nM throughout.
For the molecule `COc1ncc(CNC(=O)c2cc(C(=O)N3CC(O)C3)cc(-c3ccc(C)cc3)c2)cn1` [Compound 133], the values for the IC50 at hP2X2/3H and on hP2X3 were 100 to 500 nM and under 100 nM, respectively.
The like results for `Cc1ccc(-c2cc(C(=O)NCc3ncc(Cl)cc3Cl)cc(C(=O)N3CC(O)C3)c2)cc1` [Compound 134] were, in that order, under 100 nM and under 100 nM.
The like results for `Cc1ccc(-c2cc(C(=O)N[C@H](C)c3ccc(C(F)(F)F)nc3)cc(C(=O)N3CCCC3)c2)nc1` [Compound 135] were, in that order, under 100 nM and under 100 nM.
For `Cc1ccc(CNC(=O)c2cc(-c3ccc(Cl)c(F)c3)cc(S(C)(=O)=O)c2)cn1` [Compound 136], the figures for the IC50 at hP2X2/3H and on hP2X3 were over 1000 nM and 501 to 1000 nM, respectively.
For `Cc1ccc(CNC(=O)c2cc(-c3ccc(C)c(F)c3)cc(S(C)(=O)=O)c2)cn1` [Compound 137], in that order: 100 to 500 nM and 100 to 500 nM.
Consider `Cc1ccc(CNC(=O)c2cc(-c3ccc(Cl)cc3)cc(S(C)(=O)=O)c2)cn1` [Compound 138], for which the IC50 at hP2X2/3H and at hP2X3 was 100 to 500 nM each time.
In the case of `Cc1ccc(CNC(=O)c2cc(-c3ccc(Cl)c(C(F)(F)F)c3)cc(S(C)(=O)=O)c2)cn1` [Compound 139], the IC50 on hP2X2/3H and at hP2X3 was over 1000 nM in each case.
Take `Cc1ccc(-c2cc(C(=O)NCc3ccc(C)nc3)cc(C(=O)N3C[C@H]4CNC[C@H]4C3)c2)cc1` [Compound 140, 4′-Methyl-N-((6-methylpyridin-3-yl)methyl)-5-((3aR,6aS)-octahydropyrrolo[3,4-c]pyrrole-2-carbonyl)biphenyl-3-carboxamide]: the IC50 at hP2X2/3H and at hP2X3 was 100 to 500 nM throughout.
Take `Cc1ccc(-c2cc(C(=O)NCc3ccc(C)nc3)cc(C(=O)N3CC4CN(C)CC4C3)c2)cc1` (stereo not shown) [Compound 141]: the IC50 at hP2X2/3H was 100 to 500 nM; on hP2X3, under 100 nM.
For `Cc1ccc(-c2cc(C(=O)NCc3ccc(C)nc3)cc(C(=O)N3CC[C@H](N(C)C)C3)c2)cc1` [Compound 142], the IC50 at hP2X2/3H is 100 to 500 nM; at hP2X3, under 100 nM.
`Cc1ccc(-c2cc(C(=O)NCc3ccc(C)nc3)cc(C(=O)N3CC[C@@H](N(C)C)C3)c2)cc1` [Compound 143]: the figures for the IC50 on hP2X2/3H and on hP2X3 were 501 to 1000 nM and 100 to 500 nM, respectively.
In the case of `COc1ccc(CNC(=O)c2cc(-c3ccc(C)cc3)cc(S(C)(=O)=O)c2)cn1` [Compound 144], the IC50 is under 100 nM at hP2X2/3H and 100 to 500 nM on hP2X3.
For the molecule `Cc1ccc(-c2cc(C(=O)NCc3ccc(C(F)(F)F)c(F)c3)cc(C(=O)N3CCCC3)c2)nc1` [Compound 145], the IC50 at hP2X2/3H and on hP2X3 was 100 to 500 nM throughout.
For `Cc1ccc(-c2cc(C(=O)NCc3ccc(C(F)(F)F)nc3)cc(C(=O)N3CC[C@@H](O)C3)c2)nc1` [Compound 146], the IC50 on hP2X2/3H and on hP2X3 was under 100 nM each time.
Regarding `Cc1ccc(-c2cc(C(=O)N[C@H](C)c3cnc(C)nc3)cc(S(=O)(=O)N3CCCC3)c2)c(C#N)c1` [Compound 147], the values for the IC50 at hP2X2/3H and at hP2X3 were over 1000 nM and under 100 nM, respectively.
Take `Cc1ccc(-c2cc(C(=O)NCc3ccc(C)nc3)cc(S(=O)(=O)N3CCCC3)c2)c(C#N)c1` [Compound 148]: the IC50 on hP2X2/3H was over 1000 nM; on hP2X3, under 100 nM.
`Cc1ccc(-c2cc(C(=O)N[C@H](C)c3cnc(C)c(Cl)c3)cc(S(C)(=O)=O)c2)cc1` [Compound 149]: the IC50 on hP2X2/3H and on hP2X3 was 100 to 500 nM throughout.
Take `Cc1ccc(-c2cc(C(=O)N[C@H](C)c3ccc(C(F)(F)F)nc3)cc(C(=O)N3CC[C@@H](O)C3)c2)nc1` [Compound 150]: the IC50 at hP2X2/3H and at hP2X3 was under 100 nM throughout.
As to `Cc1ccc(-c2cc(C(=O)NCc3ccc(C(F)(F)F)c(F)c3)cc(C(=O)N3CC[C@@H](O)C3)c2)nc1` [Compound 151], the results for the IC50 at hP2X2/3H and at hP2X3 were 100 to 500 nM and under 100 nM, respectively.
The like results for `COc1ccc(CNC(=O)c2cc(C(=O)N3CCCC3)cc(-c3ccc(C)cc3)c2)cn1` [Compound 152] were, in that order, under 100 nM and under 100 nM.
The like results for `Cc1ccc(-c2cc(C#N)cc(C(=O)NCc3ccc(C)nc3)c2)cc1` [Compound 153] were, in that order, 100 to 500 nM and 100 to 500 nM.
The like results for `Cc1ccc(-c2cc(C#N)cc(C(=O)NCc3cnc(C)nc3)c2)cc1` [Compound 154] were, in that order, 100 to 500 nM and 100 to 500 nM.
As to `Cc1ccc(-c2cc(C#N)cc(C(=O)NCc3cnc(C)nc3)c2)nc1` [Compound 155], the IC50 at hP2X2/3H and at hP2X3 was over 1000 nM each time.
Regarding `Cc1ccc(-c2cc(C(=O)NCc3ccc(C(F)(F)F)nc3)cc(C(=O)N3CC[C@@H](O)C3)c2)cc1` [Compound 156], the values for the IC50 on hP2X2/3H and at hP2X3 were 100 to 500 nM and under 100 nM, respectively.
Consider `Cc1ccc(-c2cc(C(=O)N[C@H](C)c3cnc(C)nc3)cc(C(=O)N3CC[C@@H](O)C3)c2)cc1` [Compound 157], for which the IC50 on hP2X2/3H and at hP2X3 was under 100 nM in each case.
Regarding `Cc1ccc(-c2cc(C(=O)N[C@H](C)c3ccc(C(F)(F)F)nc3)cc(C(=O)N3CC[C@@H](O)C3)c2)cc1` [Compound 158], the IC50 on hP2X2/3H and on hP2X3 was under 100 nM each time.
With `Cc1ccc(-c2cc(C(=O)NCc3cccc(-n4cnnc4)c3)cc(C(=O)N3CCCC3)c2)cc1` [Compound 159], the IC50 on hP2X2/3H and at hP2X3 was 100 to 500 nM each time.
As to `Cc1ccc(-c2cc(C#N)cc(C(=O)NCc3ccc(C)nc3)c2)nc1` [Compound 160], the IC50 on hP2X2/3H was 501 to 1000 nM; at hP2X3, 100 to 500 nM.
For `Cc1ccc(-c2cc(C(N)=O)cc(C(=O)NCc3ccc(C)nc3)c2)cc1` [Compound 161], the IC50 is 100 to 500 nM on hP2X2/3H and under 100 nM on hP2X3.
